Patent US20260053723A1, “PLAQUE DISCLOSING COMPOSITION” (AIOBIO CO, LTD., priority 2020, published 2026)

How the values were obtained:
[1] = Evaluation of fluorescence intensity of RPS (Qraycam Pro images, fluorescence spectrometer); format: physicochemical
Experimental: (§1) Sterile distilled water (DW, (1)), gargle (GG, Soom Mouthwash, (2)), saliva (S (F-X), (3)) and filtered saliva (S(F-O), (4)) 100 mg/ml RPS stock formulation (plates were prepared after preparation by diluting at concentrations of 100 mg/mL, 50 mg/mL, 25 mg/mL, 12.5 mg/mL, 6.25 mg/ml, 3.12 mg/mL, 1.5 mg/mL, 0.78 mg/mL, 0.39 mg/mL, 0.19 mg/mL, and 0.1 mg/mL.
Each plate prepared was photographed with the Qraycam Pro (AIOBIO, Seoul, Korea) to obtain white light and blue light images. Then, fluorescence intensity was measured using a fluorescence spectrometer (Varioskan, excitation=405 nm/emission=520 nm).

[2] = Highest concentration at which RPS was completely dissolved; format: physicochemical
Experimental: as §1
A plaque staining agent, 2-tone (2T), used in clinical practice was diluted to a concentration of 10% and set as a control group. As an experimental group, two concentrations, 50 mg/mL (the highest concentration at which RPS was completely dissolved) and 0.4 mg/mL (the strongest fluorescence intensity), were selected based on the results of Experimental Example 1 above.

concentration of the maximum fluorescence intensity ([1]; fluorescence spectrometer, excitation=405 nm/emission=520 nm, all solvents (DW, gargle, saliva, filtered saliva)): 400 µg/mL
highest concentration at which RPS was completely dissolved [2]: 50 mg/mL
SMILES: Cc1cc2nc3c(=O)[nH]c(=O)nc-3n(C[C@H](O)[C@H](O)[C@H](O)COP(=O)([O-])O)c2cc1C.[Na+] [RPS, riboflavin 5-phosphate sodium]
trend of fluorescence intensity with concentration ([1]; fluorescence spectrometer, excitation=405 nm/emission=520 nm): increased from 0.01 mg/mL to 0.39 mg/mL, and then decreased again
fluorescence colour, visual evaluation of images ([1]; shift from high concentration (100 mg/mL) to low concentration): red fluorescence was converted to green fluorescence
difference in fluorescence between solvents, visual evaluation ([1]; white light and blue light images, DW, gargle, saliva, filtered saliva): no difference in fluorescence was observed between solvents
